“Also recorded” adds a separate entry of the source.
Key:
[1] = system: LC3-II and beclin-1 in M14 cells; assay: Western blotting for LC3 and beclin-1, M14; type: cell-based, human; conditions: 24 h, 100 μM
Protocol: 1×10^6 of WM266-4 or M14 cells were seeded in 3 mL of E-MEM or RPMI-1640 medium supplemented with 10% FBS and 1% penicillin/streptomycin in 6 cm plates. […] After washing with TBST, the membranes were treated with chemilumiscent horseradish peroxidase detection reagent (Thermo Scientific, Cat #32209) and exposed to autoradiography film (Denville Scientific, Inc., Metuchen, N.J., USA, cat #E3018). ImageJ software (NIH, Bethesda, Md.) was used to quantify the intensity of proteins bands. The protein bands were normalized against loading controls (β-actin) and expressed as a fold of an untreated control.

[2] = system: calpain in WM266-4 cells; assay: Calpain activity assay (Calpain-Glo); type: cell-based, human; conditions: 100 μM; 30 min, 4 and 24 h
Protocol: The Calpain-Glo Protease Assay (Promega cat #) was used to measure the calpain enzyme activity in live cells, according to the manufacturer's instructions. 1,250 of WM-266-4 cells were plated in 384-well white TC-treated plates in 5 μL of serum-free EMEM media. The cells were incubated overnight at 37° C., 5% CO2 and 95% relative humidity and 5 μL of test compounds 2155-14, (100 μM), calpain inhibitor III and PD151746 (25 μM) were added alone or in combination and incubated at 37° C., 5% CO2, and 95% relative humidity for 0.5, 4, and 24 h. After incubation, 10 μL, of a freshly prepared dilution of the Calpain-Glo Reagent stock solution (consisting of Suc-LLVY-Glo™ substrate, Calpain-Glo™ buffer, Luciferin Detection Reagent, and CaCl2) was added to cells at above mentioned times and luminescence was recorded with a Neo 2 microplate reader (Biotek Inc). All experiments were performed in triplicate and the values provided are the calculated average of at least three independent experiments.

[3] = molecular target: T1, DDX1 (Homo sapiens, UniProt Q92499); assay: DARTS with western blot; type: binding; conditions: WM266-4 lysates
T1 construct: WM-266-4 and M14 cells were sonicated in RIPA lysis buffer; endogenous in cells; host or cells: WM266-4 (and M14) melanoma cells and lysates
Description: (§1) (FIG. 26A, DARTS workflow). Proteins that bind the lead present as bands of differential intensity on SDS-PAGE and are identified using proteomic techniques. […] Bands from non-treated control and sample treated with 2155-14 were excised, trypsinized, and run on LC/MS/MS. […] In addition to lamin A/C, lamin B2, transketolase (TKT), and cytoskeleton-associated protein 4 (CKAP4) were also identified as possible targets (Table 7 shown in FIG. 27). The exclusive unique peptide counts were too close to make the identification of one over the other with confidence.
(§2) WM266-4 melanoma cell lysates were prepared using a routine protocol with commercially available M-PER buffer supplemented with protease and phosphatase inhibitors. Lysates were split into control and compound test portions, and DMSO and 2155-14 were added to the respective lysate portions and incubated at RT for 1 h to allow for 2155-14 binding to its target(s). Pronase dilutions (1:100. 1:300, 1:1000. 1:3000 and 1:10000, Roche #10165921001) were prepared from 10 mg/mL stock. Lysates were split into 5 aliquots, and pronase dilutions were added to lysate aliquots and incubated at RT for 30 min. […]
(§3) Each sample was analyzed by liquid-chromatography-tandem MS (LC-MS/MS) using an EASY-nLC 1000 system coupled to a Q Exactive mass spectrometer (Thermo Fisher Scientific). […]

[4] = system: hnRNP A2/B1; assay: DARTS with western blot; type: binding, human; conditions: WM266-4 lysates
Description: as §1, §2, §3

[5] = system: hnRNP H2; assay: DARTS with western blot; type: binding, human; conditions: WM266-4 lysates
Description: as §1, §2, §3

[6] = system: WM266-4 cells; assay: Mitochondrial potential assay; type: cell-based, human; conditions: 1 and 4 h; time stated at the place
Protocol: 5,000 WM266-4 cells were seeded in 100 μL of EMEM medium supplemented with 10% FBS in 24-well plate. The cells were treated with carbonyl cyanide m-chlorophenyl hydrazone (CCCP, 25-50 μM) as a pharmacological control and 1-100 μM of 2155-14. After 1, 4, and 24 h, the cells were stained with 200 nM of Mito-Tracker dye (ThermoFisher cat #M22425) and DAPI for 1 h. Finally, the cells were washed with PBS and media was added. The cells were imaged and analyzed using Cytation 5 imager using Cy5 and DAPI filter sets (Biotek Inc, Winoosky, Vt.). To calculate staining intensity, the Object Sum Area value from Cy5 channel was obtained and divided by number of cells using DAPI channel. Both Cy5 and DAPI cell counts were conducted using optimized algorithm in automatic mode. 3 replicate wells were used.

T1 sequence (Q92499 whole entry): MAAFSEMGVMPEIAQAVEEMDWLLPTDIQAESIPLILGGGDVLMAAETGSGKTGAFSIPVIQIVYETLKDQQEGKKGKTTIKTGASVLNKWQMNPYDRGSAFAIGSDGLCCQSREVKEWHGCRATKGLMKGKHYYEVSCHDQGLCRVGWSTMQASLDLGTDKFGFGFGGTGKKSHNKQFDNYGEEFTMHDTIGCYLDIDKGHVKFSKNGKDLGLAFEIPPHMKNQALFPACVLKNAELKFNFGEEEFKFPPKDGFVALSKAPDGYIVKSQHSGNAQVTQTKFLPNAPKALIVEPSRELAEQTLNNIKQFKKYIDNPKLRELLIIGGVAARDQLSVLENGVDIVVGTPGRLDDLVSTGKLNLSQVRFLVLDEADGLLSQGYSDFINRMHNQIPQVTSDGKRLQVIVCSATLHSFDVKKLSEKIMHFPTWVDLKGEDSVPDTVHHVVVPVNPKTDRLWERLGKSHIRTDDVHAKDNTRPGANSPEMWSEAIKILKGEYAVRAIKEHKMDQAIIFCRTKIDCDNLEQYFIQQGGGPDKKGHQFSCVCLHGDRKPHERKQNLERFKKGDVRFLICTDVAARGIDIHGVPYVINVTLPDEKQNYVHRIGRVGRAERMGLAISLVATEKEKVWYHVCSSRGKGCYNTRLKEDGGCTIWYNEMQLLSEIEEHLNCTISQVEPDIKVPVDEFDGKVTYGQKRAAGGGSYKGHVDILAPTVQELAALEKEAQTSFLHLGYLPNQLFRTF

SMILES: O=C1NC[C@H](Cc2ccccc2)N(C[C@@H]2CCCN2C[C@@H](CC2CCCCC2)N2C[C@H](Cc3ccc(O)cc3)N(CCc3ccccc3)C(=O)C2=O)C1=O [Compound 2155-14, (S)-1((R)-1((S)-2-(((S)-6-benzyl-2,3-dioxopiperazin-1-yl)methyl)pyrrolidin-1-yl)-3-cyclohexylpropan-2-yl)-5-(4-hydroxybenzyl)-4-phenethylpiperazine-2,3-dione]
- LC3-II level, M14 [1]: dose dependent increase
- beclin-1 level, M14 [1]: dose dependent increase
- calpain activity [2]: Calpain activity at 30 min was at the baseline level; also recorded: time-dependent increase of activity at 4 and 24 h
- protection of DDX1 from pronase [3]: protects these proteins from pronase proteolysis
- protection of hnRNPA2/B1 from pronase [4]: protects these proteins from pronase proteolysis
- protection of hnRNPH2 from pronase [5]: protects these proteins from pronase proteolysis
- mitochondrial potential [6]: no significant effect 1 h after the addition of compounds; also recorded: At 4 h, mitochondrial potential was decreased; also recorded: no significance between untreated control and cells treated with 2155-14

Source: patent US11149028B2, “Methods for treating melanoma using small molecules” (NOVA SOUTHEASTERN UNIVERSITY, priority 2016, dated 2021)
